Legend:
AmpC = AmpC (Pseudomonas aeruginosa (strain ATCC 15692 / DSM 22644 / CIP 104116 / JCM 14847 / LMG 12228 / 1C / PRS 101 / PAO1), UniProt P24735); assay type: biochemical; conditions: result in words
Method: The biological activity of the above-mentioned compounds represented by formulae (H) and (s) can be measured as follows. […] Further, using constitutive AmpC producing Pseudomonas aeruginosa, a combined antimicrobial activity (MIC) was measured when using Piperacillin (PIPC) as an antibiotic and the compound of formula (H) or (s) in combination to check whether or not the antimicrobial activity of PIPC could be restored.
Using P. aeruginosa PAO1 genome as a template, a DNA for encoding an AmpC β-lactamase domain excluding a signal peptide was amplified with PCR. This PCR product was incorporated into pET-28b(+)vector (Merck), introduced into E. coli BL21 (Merck), and, under induction of 1 mM isopropyl-β-D-(−)-thiogalactopyranoside (Nacalai Tesque), cultured overnight at 20° C. to express AmpC. After the bacterial cell was collected, AmpC was purified from the cell extract obtained by ultrasonic treatment, using CM Sepharose Fast Flow (GE Healthcare) and HiTrap Heparin HP (GE Healthcare) at 4° C.

[1] = tested on: P. aeruginosa PAO1 variant, which constitutively expresses AmpC; experiment: Combinatorial antibacterial activity (MIC of PIPC) in combination with test compound, agar plate dilution; assay type: cell-based, Pseudomonas aeruginosa; conditions: for MIC: Pseudomonas aeruginosa, PAO1; for effect of the compound in combination with an antibiotic: result in words
Method: The biological activity of the above-mentioned compounds represented by formulae (H) and (s) can be measured as follows. Specifically, an enzyme inhibitory activity (IC50 value) against AmpC enzyme which is a class C β-lactamase was determined using nitrocephin as a substrate to check whether or not the compounds had the inhibitory activity and compare the activities of them. Further, using constitutive AmpC producing Pseudomonas aeruginosa, a combined antimicrobial activity (MIC) was measured when using Piperacillin (PIPC) as an antibiotic and the compound of formula (H) or (s) in combination to check whether or not the antimicrobial activity of PIPC could be restored.
The combinatorial effect of the test compound with a β-lactam agent against bacteria was evaluated using AmpC constitutive expression strain selected from P. aeruginosa PAO1 through agent exposure. Using piperacillin (PIPC, Sigma-Aldrich) as a β-lactam agent, measurement was conducted by agar plate dilution process in which minimal inhibitory concentration (MIC) of PIPC is based on Clinical and Laboratory Standards Institute (CLSI process). That is, an agara plate containing 4 μg/mL (final concentration) of test compound and PIPC at each concentration in Mueller-Hinton agar (Becton, Dickinson and Company) was made, and bacteria cultured overnight in cation-adjusted Muller-Hinton broth (Becton, Dickinson and Company) were adjusted in the same medium so as to have 10^4 CFU/spot and inoculated on a plate containing an agent. This plate containing an agent was cultured overnight at 35° C., and the minimum agent concentration in which no growth of bacteria is observed was determined to be MIC.

Sequence of AmpC (P24735 27-397): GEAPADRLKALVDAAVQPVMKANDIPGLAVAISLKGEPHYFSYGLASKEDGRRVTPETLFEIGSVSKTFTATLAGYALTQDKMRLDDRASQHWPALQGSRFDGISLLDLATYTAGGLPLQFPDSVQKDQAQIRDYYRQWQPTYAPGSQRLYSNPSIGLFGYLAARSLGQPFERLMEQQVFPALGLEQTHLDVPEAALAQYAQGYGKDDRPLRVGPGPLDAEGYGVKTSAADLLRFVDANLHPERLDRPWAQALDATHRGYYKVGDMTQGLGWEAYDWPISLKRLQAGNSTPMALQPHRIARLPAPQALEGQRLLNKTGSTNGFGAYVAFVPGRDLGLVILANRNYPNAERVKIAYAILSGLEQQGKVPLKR

SMILES | β-lactamase enzyme inhibitory activity (AmpC) | MIC [1] | effect of the compound in combination with an antibiotic [1]
NC(=O)[C@@H]1CC[C@@H]2CN1C(=O)N2OS(=O)(=O)[O-].[Na+] [Example 23, (2S,5R)-1,6-Diazabicyclo[3.2.1]octane-2-carboxamide, 7-oxo-6-(sulfoxy)-monosodium salt] | exhibited the activities | 4 µg/mL | exhibited the activities
C[C@]1(Cn2ccnn2)[C@H](C(=O)[O-])N2C(=O)C[C@H]2S1(=O)=O.[Na+] [TAZ, Tazobactam, reference compound] |  | 64 µg/mL | 
NC(=O)[C@H]1CC[C@H]2CN1C(=O)N2OS(=O)(=O)[O-].[Na+] [Example 24, (2R,5S)-1,6-Diazabicyclo[3.2.1]octane-2-carboxamide, 7-oxo-6-(sulfoxy)-monosodium salt] | exhibited no activity | 64 µg/mL | exhibited no activity

— US9676777B2, “Compounds useful for producing an optically active diazabicyclooctane compound” (Meiji Seika Pharma Co., Ltd., priority 2010, dated 2017)
